The text below walks through data of US20050095663A1, “Process for screening fungitoxic compounds” (priority 2002, published 2005).

In the test the target is T1, Rat liver Δ-9 fatty acid desaturase (Rattus norvegicus, UniProt P07308).
T1 construct: The upper gelatinous layer is the microsomal fraction; from tissue; host or cells: liver of Sprague-Dawley rats (starved, then fed a fat-free diet), microsomal fraction
T1 sequence (P07308 1-358): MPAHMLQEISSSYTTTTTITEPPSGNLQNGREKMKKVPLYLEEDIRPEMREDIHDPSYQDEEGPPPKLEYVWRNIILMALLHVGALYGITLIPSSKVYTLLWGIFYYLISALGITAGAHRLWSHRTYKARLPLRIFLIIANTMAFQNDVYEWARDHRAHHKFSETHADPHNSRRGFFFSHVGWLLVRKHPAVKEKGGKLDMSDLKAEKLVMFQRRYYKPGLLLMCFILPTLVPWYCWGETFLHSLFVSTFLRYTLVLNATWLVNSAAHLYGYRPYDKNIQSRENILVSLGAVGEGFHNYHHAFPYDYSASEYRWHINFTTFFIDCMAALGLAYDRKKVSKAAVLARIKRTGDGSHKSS
Description: Rat liver microsomal Δ-9 fatty acid desaturase assay (14C-palmitoyl-CoA to palmitoleic acid). The test is classed as biochemical. As to the method:
The following method was used to prepare the microsomal Δ-9 fatty acid desaturase from rat liver. Sprague-Dawley rats weighing between 120 and 180 g were fed with Purina laboratory chow, starved for 48 h, then fed with a “Fat-Free” test diet (Nutritional Biochemical Corporation) for 20 h. Livers were removed and placed in cold […] Tris-acetate buffer, pH 8.1, containing 0.25 M sucrose and 1 mM EDTA. The tissue was washed twice with 10 volumes of cold buffer, blotted dry and weighed. The tissue was minced and homogenized in 5 ml of buffer per gram of tissue using a glass homogenizer with a loose fitting Teflon pestle. […]
Delta-9 Fatty acid desaturase assays were performed by measuring the desaturation of ^14C-palmitoyl-CoA to palmitoleic acid using 0.5 ml reaction mixtures containing 0.1 M potassium phosphate buffer, pH 7.2, 1 mM NADH and 26 μM ^14C-palmitoyl-CoA (0.028 μCi per assay) in 13×100 mm glass culture tubes. […] The upper cyclohexane layer was removed and 100 μI analyzed by HPLC on a Supelcosil LC-18 column (25×4.6 mm) with methanol-water-phosphoric acid (90:9.9:0.1, by volume) as the mobile phase at a flow rate of 1 ml/min. A Packard A120 RAM detector was used to determine the amounts of radioactivity in the palmitic and palmitoleic acid fractions. […] The concentration of compound 1 which inhibited production of palmitoleic acid by 50% was determined from dose-response curves.
(Liver microsomes are vesicles of endoplasmic reticulum, rich in cytochrome P450 enzymes.)

SMILES strings stand for the structures.

Regarding `CCC#CCn1nc(-c2ccc(Cl)cc2)ccc1=O` [Compound 1, 6-(4-chlorophenyl)-2-(2′-pentynyl)pyridazinone], the “Inhibition of mammalian Δ-9 fatty acid desaturase (in words)” value is given as “does not inhibit”. The “Rat liver desaturase EC50” value (microsomal preparation, 26 μM 14C-palmitoyl-CoA, 30° C., 5 min) is reported as over 100 ppm.
